# Assay results published in ChEMBL document CHEMBL1201862, “PubChem BioAssay data set” (2004).
#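 Step 1: Grow cells in 96-well plates. Step 2: Expose to compound for 48 hours at 5 concentrations. Step 3: Interpolate endpoints linearly; if unreached, use highest concentration. At the GI50, growth is halved.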 Active and inactive are the calls of the source. Cut-off read from the data, not from the text of the source: active = GI50 up to about 1.1 µM and inactive = higher.
# Experiments:
# Experiment in all cases: inhibition of tumour cell growth, NCI panel, 48 h
# T47D = tested on: T47D
# NCI-H522 = tested on: NCI-H522
# NCI-H23 = tested on: NCI-H23
# UACC-257 = tested on: UACC-257
# EKVX = tested on: EKVX
# UACC-62 = tested on: UACC-62
# MDA-MB-231 = tested on: MDA-MB-231
# COLO 205 = tested on: COLO 205
# SN12C = tested on: SN12C
# SF-295 = tested on: SF-295
# NCI/ADR-RES = tested on: NCI/ADR-RES
# OVCAR-3 = tested on: OVCAR-3
# HCT-116 = tested on: HCT-116
# SK-MEL-2 = tested on: SK-MEL-2
# A498 = tested on: A498
# OVCAR-4 = tested on: OVCAR-4
# UO-31 = tested on: UO-31
# U-251 = tested on: U-251
# Hs-578T = tested on: Hs-578T
# IGROV-1 = tested on: IGROV-1
# Malme-3M = tested on: Malme-3M
# KM12 = tested on: KM12
# ACHN = tested on: ACHN
# RXF 393 = tested on: RXF 393
# MOLT-4 = tested on: MOLT-4
# 786-0 = tested on: 786-0
# SK-MEL-28 = tested on: SK-MEL-28
# PC-3 = tested on: PC-3
# OVCAR-5 = tested on: OVCAR-5
# HCT-15 = tested on: HCT-15
# NCI-H226 = tested on: NCI-H226
# CAKI-1 = tested on: CAKI-1
# SW-620 = tested on: SW-620
# BT-549 = tested on: BT-549
# SF-268 = tested on: SF-268
# HOP-62 = tested on: HOP-62
# MCF7 = tested on: MCF7
# DU-145 = tested on: DU-145
# OVCAR-8 = tested on: OVCAR-8
# MDA-N = tested on: MDA-N
# A549 = tested on: A549
# HOP-92 = tested on: HOP-92
# SNB-75 = tested on: SNB-75
# K562 = tested on: K562
# RPMI-8226 = tested on: RPMI-8226
# SF-539 = tested on: SF-539
# NCI-H460 = tested on: NCI-H460
# HCC 2998 = tested on: HCC 2998
# SK-MEL-5 = tested on: SK-MEL-5
# LOX IMVI = tested on: LOX IMVI
# MDA-MB-435 = tested on: MDA-MB-435
# CCRF-CEM = tested on: CCRF-CEM
# HT-29 = tested on: HT-29
# HL-60 = tested on: HL-60
# TK-10 = tested on: TK-10
# SR = tested on: SR
# SK-OV-3 = tested on: SK-OV-3
# SNB-19 = tested on: SNB-19
# M14 = tested on: M14
smiles,measurement,setting,value
O=c1[nH]nc(Cc2ccccc2)n1/N=C\c1ccccc1,GI50,T47D,> 100 µM (inactive)
same,GI50,NCI-H522,> 100 µM (inactive)
same,GI50,NCI-H23,> 100 µM (inactive)
same,GI50,UACC-257,> 100 µM (inactive)
same,GI50,EKVX,> 100 µM (inactive)
same,GI50,UACC-62,95.5 µM (inactive)
same,GI50,MDA-MB-231,> 100 µM (inactive)
same,GI50,COLO 205,> 100 µM (inactive)
same,GI50,SN12C,> 100 µM (inactive)
same,GI50,SF-295,43.9 µM (inactive)
same,GI50,NCI/ADR-RES,> 100 µM (inactive)
same,GI50,OVCAR-3,> 100 µM (inactive)
same,GI50,HCT-116,> 100 µM (inactive)
same,GI50,SK-MEL-2,31.2 µM (inactive)
same,GI50,A498,> 100 µM (inactive)
same,GI50,OVCAR-4,> 100 µM (inactive)
same,GI50,UO-31,> 100 µM (inactive)
same,GI50,U-251,37.1 µM (inactive)
same,GI50,Hs-578T,76.2 µM (inactive)
same,GI50,IGROV-1,84.7 µM (inactive)
same,GI50,Malme-3M,> 100 µM (inactive)
same,GI50,KM12,> 100 µM (inactive)
same,GI50,ACHN,> 100 µM (inactive)
same,GI50,RXF 393,24.6 µM (inactive)
same,GI50,MOLT-4,> 100 µM (inactive)
same,GI50,786-0,71.3 µM (inactive)
same,GI50,SK-MEL-28,> 100 µM (inactive)
same,GI50,PC-3,> 100 µM (inactive)
same,GI50,OVCAR-5,> 100 µM (inactive)
same,GI50,HCT-15,> 100 µM
same,GI50,NCI-H226,> 100 µM (inactive)
same,GI50,CAKI-1,> 100 µM (inactive)
same,GI50,SW-620,> 100 µM (inactive)
same,GI50,BT-549,> 100 µM (inactive)
same,GI50,SF-268,> 10 µM (inactive)
same,GI50,HOP-62,56.6 µM (inactive)
same,GI50,MCF7,> 100 µM (inactive)
same,GI50,DU-145,> 100 µM (inactive)
same,GI50,OVCAR-8,90.4 µM (inactive)
same,GI50,MDA-N,> 100 µM (inactive)
same,GI50,A549,> 100 µM (inactive)
same,GI50,HOP-92,46.2 µM (inactive)
same,GI50,SNB-75,32.3 µM (inactive)
same,GI50,K562,> 100 µM (inactive)
same,GI50,RPMI-8226,> 100 µM (inactive)
same,GI50,SF-539,> 100 µM (inactive)
same,GI50,NCI-H460,> 100 µM (inactive)
same,GI50,HCC 2998,> 100 µM (inactive)
same,GI50,SK-MEL-5,> 100 µM (inactive)
same,GI50,LOX IMVI,> 100 µM (inactive)
same,GI50,MDA-MB-435,> 100 µM (inactive)
same,GI50,CCRF-CEM,> 100 µM (inactive)
same,GI50,HT-29,> 100 µM (inactive)
same,GI50,HL-60,> 100 µM (inactive)
same,GI50,TK-10,> 100 µM (inactive)
same,GI50,SR,> 100 µM (inactive)
Cc1ccc2c(O)cc(-c3cccc4ccccc34)nc2n1,GI50,T47D,67.8 µM (inactive)
same,GI50,NCI-H522,< 0.0187 µM (active)
same,GI50,NCI-H23,0.0352 µM (active)
same,GI50,EKVX,0.0338 µM (active)
same,GI50,UACC-62,0.01 µM (active)
same,GI50,MDA-MB-231,0.0522 µM (active)
same,GI50,COLO 205,0.022 µM (active)
same,GI50,SN12C,0.181 µM (active)
same,GI50,SF-295,0.0193 µM (active)
same,GI50,NCI/ADR-RES,0.0186 µM (active)
same,GI50,OVCAR-3,< 0.0149 µM (active)
same,GI50,HCT-116,< 0.0151 µM (active)
same,GI50,SK-MEL-2,0.0182 µM (active)
same,GI50,A498,0.0101 µM (active)
same,GI50,OVCAR-4,0.495 µM (active)
same,GI50,UO-31,0.189 µM (active)
same,GI50,U-251,0.0166 µM (active)
same,GI50,Hs-578T,0.043 µM (active)
same,GI50,IGROV-1,0.0627 µM (active)
same,GI50,Malme-3M,< 0.01 µM (active)
same,GI50,KM12,0.0241 µM (active)
same,GI50,ACHN,0.102 µM (active)
same,GI50,RXF 393,0.497 µM (active)
same,GI50,MOLT-4,0.0698 µM (active)
same,GI50,786-0,0.0349 µM (active)
same,GI50,SK-MEL-28,0.016 µM (active)
same,GI50,PC-3,0.0282 µM (active)
same,GI50,OVCAR-5,0.0375 µM (active)
same,GI50,HCT-15,0.0206 µM
same,GI50,NCI-H226,0.0398 µM (active)
same,GI50,SK-OV-3,0.021 µM (active)
same,GI50,CAKI-1,0.353 µM (active)
same,GI50,SW-620,0.0203 µM (active)
same,GI50,BT-549,0.652 µM (active)
same,GI50,SF-268,0.762 µM (active)
same,GI50,HOP-62,1.88 µM (inactive)
same,GI50,MCF7,0.0256 µM (active)
same,GI50,DU-145,0.0392 µM (active)
same,GI50,OVCAR-8,0.032 µM (active)
same,GI50,SNB-19,0.0445 µM (active)
same,GI50,MDA-N,< 0.01 µM (active)
same,GI50,A549,0.032 µM (active)
same,GI50,HOP-92,0.0127 µM (active)
same,GI50,SNB-75,0.0116 µM (active)
same,GI50,K562,< 0.01 µM (active)
same,GI50,RPMI-8226,0.0227 µM (active)
same,GI50,SF-539,0.0216 µM (active)
same,GI50,NCI-H460,0.0342 µM (active)
same,GI50,HCC 2998,0.0294 µM (active)
same,GI50,SK-MEL-5,< 0.0117 µM (active)
same,GI50,LOX IMVI,0.0229 µM (active)
same,GI50,MDA-MB-435,< 0.01 µM (active)
same,GI50,CCRF-CEM,0.0251 µM (active)
same,GI50,HT-29,< 0.0116 µM (active)
same,GI50,HL-60,< 0.01 µM (active)
same,GI50,SR,< 0.01 µM (active)
same,GI50,M14,0.0247 µM (active)
